We go through ten compounds from ChEMBL document CHEMBL1909605, “Cytotoxic and antivascular 1-methyl-4-(3-fluoro-4-methoxyphenyl)-5-(halophenyl)-imidazoles” (Bioorg Med Chem Lett, 2011).

In brackets after ≈: the same amount, converted by molar mass. Activity calls are given as the source filed them. No cut-off for these calls is given here.

Experiment [1] in a line: Growth inhibition of rat kangaroo PtK2 cells after 5 days by MTT assay. Type of experiment: cell-based. Particulars: Potorous tridactylus, PtK2, 120 h. A general note: Formazan colour is commonly taken as a measure of viable cells.
A short description of experiment [2]: Growth inhibition of human KB-3-1 cells after 5 days by MTT assay. Format: functional, cell-based. As to conditions: KB 3-1, 120 h.
The subject of experiment [3] is NHDF. Put plainly: Growth inhibition of human NHDF cells after 5 days by MTT assay. As to conditions: 120 h. Format: cell-based.
Experiment [4] has as its target Tubulin (Sus scrofa) (UniProt P02554+P02550). Put plainly: Inhibition of pig porcine tubulin polymerization at 25 ug/mL by turbidimetric method. Type of experiment: protein assay. As to conditions: at 25 µg/mL.
Experiment [5] has as its system L929. Put plainly: Growth inhibition of mouse L929 cells after 5 days by MTT assay. Format: cell-based. Particulars: L929, 120 h.
Experiment [6] relates to PtK2. Description: Disruption of microtubule network in potoroo PtK2 cells at 10 ug/mL after 16 hrs by immunofluorescence staining method. Format: cell-based. As to conditions: Potorous tridactylus.
The subject of experiment [7] is HUVEC. Put plainly: Antiangiogenic activity against human HUVEC cells assessed as suppression of tube formation after 20 hrs incubation by calcein staining-based fluorescent microscopy. Type of experiment: functional, cell-based.
Experiment [8] concerns PC-3. Put plainly: Growth inhibition of human PC3 cells after 5 days by MTT assay. Particulars: PC-3, 120 h. Type of experiment: functional, cell-based.

As a reminder, the IC50 is the concentration at which inhibition is half-maximal. Low values mean higher potency, high ones lower potency. By MIC is commonly meant the lowest concentration found to suppress growth.

Chain of Tubulin (Sus scrofa) (P02550 whole entry, looked up): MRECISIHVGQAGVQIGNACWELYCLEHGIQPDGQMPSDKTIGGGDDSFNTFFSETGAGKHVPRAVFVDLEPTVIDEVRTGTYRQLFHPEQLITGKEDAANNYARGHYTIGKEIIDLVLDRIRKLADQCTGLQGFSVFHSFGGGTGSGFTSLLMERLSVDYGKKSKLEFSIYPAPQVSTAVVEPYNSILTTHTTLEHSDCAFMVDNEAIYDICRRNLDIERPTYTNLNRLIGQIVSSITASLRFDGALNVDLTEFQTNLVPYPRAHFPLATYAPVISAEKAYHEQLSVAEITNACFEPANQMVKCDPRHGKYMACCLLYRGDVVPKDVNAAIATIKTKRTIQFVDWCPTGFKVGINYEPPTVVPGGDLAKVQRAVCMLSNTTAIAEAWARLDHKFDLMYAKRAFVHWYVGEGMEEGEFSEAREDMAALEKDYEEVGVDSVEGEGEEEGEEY
Chain of Tubulin (Sus scrofa) (P02554 whole entry, looked up): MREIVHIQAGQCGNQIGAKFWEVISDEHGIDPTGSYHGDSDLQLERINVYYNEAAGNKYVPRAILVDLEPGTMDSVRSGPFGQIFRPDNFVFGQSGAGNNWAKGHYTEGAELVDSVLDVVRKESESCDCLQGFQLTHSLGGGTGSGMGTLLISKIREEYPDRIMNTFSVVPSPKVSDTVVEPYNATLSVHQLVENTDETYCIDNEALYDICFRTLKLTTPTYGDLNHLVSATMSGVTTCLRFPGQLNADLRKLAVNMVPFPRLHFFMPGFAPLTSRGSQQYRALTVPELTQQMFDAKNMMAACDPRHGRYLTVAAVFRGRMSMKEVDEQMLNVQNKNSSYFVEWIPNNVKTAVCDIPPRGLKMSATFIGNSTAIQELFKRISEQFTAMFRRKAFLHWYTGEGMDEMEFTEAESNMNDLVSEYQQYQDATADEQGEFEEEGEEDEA

For the compound `COc1ccc(-c2c(-c3cc(OC)c(OC)c(OC)c3)ncn2C)cc1N`, the IC50 is 0.45 µM in experiment [1]; 0.07 µM in experiment [2]; 0.14 µM in experiment [3]; 0.22 µM in experiment [5]; 0.09 µM in experiment [8]. Also, the inhibition result in experiment [4] was “Active”. Besides, the result in experiment [6] was Active. Moreover, the MIC in experiment [7] is 0.29 µM (≈ 0.107 µg/mL).
Turning to `COc1ccc(-c2c(-c3cc(Cl)c(OC)c(OC)c3)ncn2C)cc1N`, the IC50 was 0.07 µM in experiment [1], 0.016 µM in experiment [2], 0.97 µM in experiment [3] and 0.135 µM in experiment [5]. In addition, the outcome in experiment [6] was Active. The minimum inhibitory concentration (MIC) in experiment [7] is 0.07 µM (≈ 0.0262 µg/mL).
As to `COc1ccc(-c2ncn(C)c2-c2cc(I)c(OC)c(OC)c2)cc1F`, the half-inhibitory concentration (IC50) in experiment [1] amounted to 0.18 µM; in experiment [2], 0.09 µM; in experiment [3], 0.04 µM; in experiment [5] it was 0.04 µM. For the same compound, the outcome in experiment [6] was Active.
For `COc1ccc(-c2ncn(C)c2-c2cc(I)c(OC)c(I)c2)cc1F`, the half-maximal inhibitory concentration (IC50) in experiment [1] was 0.33 µM; in experiment [2], 0.003 µM; in experiment [3], 3.3 µM; in experiment [5] it was 0.018 µM; in experiment [8] it was 0.003 µM. Further, the inhibition result in experiment [4] was “Active”. For the same compound, the outcome in experiment [6] was Active. The MIC in experiment [7] was 0.08 µM (≈ 0.0451 µg/mL).
Regarding `COc1ccc(-c2ncn(C)c2-c2cc(Cl)c(OC)c(OC)c2)cc1F`, the concentration for half-maximal inhibition (IC50) in experiment [1] came to 0.48 µM; in experiment [2] it was 0.19 µM; in experiment [3], 0.24 µM; in experiment [5] it was 0.22 µM. Also, the outcome in experiment [6] was Active.
For `COc1ccc(-c2ncn(C)c2-c2cc(Br)c(OC)c(Br)c2)cc1F`, the IC50 is 1.2 µM in experiment [1]; 0.014 µM in experiment [2]; 0.4 µM in experiment [3]; 4.4 µM in experiment [5]; 0.01 µM in experiment [8]. The inhibition result in experiment [4] was “Active”. Moreover, the result in experiment [6] was Active. In experiment [7], the MIC was 0.27 µM (≈ 0.127 µg/mL).
For `COc1ccc(-c2ncn(C)c2-c2cc(F)c(OC)c(OC)c2)cc1F`, the IC50 in experiment [1] was 5 µM; in experiment [2], 2 µM; in experiment [3], 7.6 µM; in experiment [5], 10 µM; in experiment [8], 1.8 µM. In addition, the outcome in experiment [6] was Active. Besides, the minimal inhibitory concentration (MIC) in experiment [7] was 10 µM (≈ 3.6 µg/mL).
As for `COc1ccc(-c2ncn(C)c2-c2cc(Cl)c(OC)c(Cl)c2)cc1F`, the IC50 came to 4.3 µM in experiment [1], 1.15 µM in experiment [2], 7.18 µM in experiment [3] and 2.4 µM in experiment [5]. For the same compound, in experiment [6], the result was Active.
Turning to `COc1ccc(-c2ncn(C)c2-c2cc(F)c(OC)c(F)c2)cc1F`, the half-maximal inhibitory concentration (IC50) worked out at 23 µM in experiment [1]; 21 µM in experiment [2]; 52 µM in experiment [3]; 31 µM in experiment [5]; 16 µM in experiment [8]. In experiment [4], the inhibition entry was “inactive”. Also, the result in experiment [6] was inactive. The minimal inhibitory concentration (MIC) in experiment [7] was 27 µM (≈ 9.4 µg/mL).
As to `COc1ccc(-c2ncn(C)c2-c2cc(Br)c(OC)c(OC)c2)cc1F`, the half-maximal inhibitory concentration (IC50) in experiment [1] was found to be 0.44 µM; in experiment [2] it was 0.005 µM; in experiment [3], 0.175 µM; in experiment [5] it was 0.025 µM; in experiment [8] it was 0.07 µM. Besides, the inhibition result in experiment [4] was “Active”. Further, the result in experiment [6] was Active. Also, in experiment [7], the minimum inhibitory concentration (MIC) was 0.11 µM (≈ 0.0463 µg/mL).
